Source: ChEMBL document CHEMBL5113487, “Novel anilinopyrimidine derivatives as potential EGFRT790M/C797S Inhibitors: Design, Synthesis, biological activity study” (Bioorg Med Chem, 2022)
The source made the active and inactive calls. The calls are words filed in the database; no cut-off is given here.

Legend:
[1] = tested on: BaF3; assay: cells; conditions: Mus musculus, BaF3, 72 h
[2] = tested on: BaF3; assay: Antiproliferative activity against mouse BaF3 cells harboring del18/T790M/C797S triple mutant assessed as cell growth inhibition incubated for 72 hrs by cell titre glo luminescence assay; type: functional, cell-based; conditions: BaF3, 72 h
[3] = tested on: A-431; assay: Antiproliferative activity against human A-431 cells assessed as cell growth inhibition incubated for 72 hrs by cell titre glo luminescence assay; type: functional, cell-based; conditions: A-431, 72 h
[4] = tested on: BaF3; assay: Antitumor activity against mouse BaF3 cells harboring EGFR del18/T790M/C797S triple mutant implanted in Balb/c nude mouse assessed as tumor growth inhibition at 30 mg/kg, po administered once a day for 14 days relative to control; type: functional; conditions: BaF3, 336 h, time 14 day, read-out: TGI
[5] = tested on: PC-9; assay: Antitumor activity against human PC-9 cells harboring EGFR del18/T790M/C797S triple mutant xenografted in NOD/SCID mouse assessed as tumor growth inhibition at 40 mg/kg, po administered once a day for 21 days relative to control; type: functional; conditions: PC-9, 504 h, time 21 day, read-out: TGI
[6] = Drug distribution in plasma of nude mouse implanted with mouse BaF3 cells harboring EGFR del18/T790M/C797S triple mutant at 15 to 45 mg/kg, po administered as single dose and measured after 4 hrs; type: ADME, organism-based; conditions: in vivo, dose 15-45 mg/kg
[7] = tested on: BaF3; assay: Antitumor activity against mouse BaF3 cells harboring EGFR del18/T790M/C797S triple mutant implanted in Balb/c nude mouse assessed as tumor weight at 30 mg/kg, po administered once a day for 14 days; type: functional; conditions: time 14 day
[8] = Toxicity in Sprague-Dawley rat assessed as animal death at 3 to 15 mg/kg, po administered once a day for 4 weeks and measured 4 weeks post recovery period; type: organism-based; conditions: in vivo, 1344 h, dose 3-15 mg/kg, time 8 weeks
[9] = molecular target: CDK9/cyclin T1 (Homo sapiens, UniProt P50750); assay: Inhibition of CDK9/Cyclin T1 (unknown origin); type: protein-complex assay
Sequence of CDK9/cyclin T1 (O60563 whole entry): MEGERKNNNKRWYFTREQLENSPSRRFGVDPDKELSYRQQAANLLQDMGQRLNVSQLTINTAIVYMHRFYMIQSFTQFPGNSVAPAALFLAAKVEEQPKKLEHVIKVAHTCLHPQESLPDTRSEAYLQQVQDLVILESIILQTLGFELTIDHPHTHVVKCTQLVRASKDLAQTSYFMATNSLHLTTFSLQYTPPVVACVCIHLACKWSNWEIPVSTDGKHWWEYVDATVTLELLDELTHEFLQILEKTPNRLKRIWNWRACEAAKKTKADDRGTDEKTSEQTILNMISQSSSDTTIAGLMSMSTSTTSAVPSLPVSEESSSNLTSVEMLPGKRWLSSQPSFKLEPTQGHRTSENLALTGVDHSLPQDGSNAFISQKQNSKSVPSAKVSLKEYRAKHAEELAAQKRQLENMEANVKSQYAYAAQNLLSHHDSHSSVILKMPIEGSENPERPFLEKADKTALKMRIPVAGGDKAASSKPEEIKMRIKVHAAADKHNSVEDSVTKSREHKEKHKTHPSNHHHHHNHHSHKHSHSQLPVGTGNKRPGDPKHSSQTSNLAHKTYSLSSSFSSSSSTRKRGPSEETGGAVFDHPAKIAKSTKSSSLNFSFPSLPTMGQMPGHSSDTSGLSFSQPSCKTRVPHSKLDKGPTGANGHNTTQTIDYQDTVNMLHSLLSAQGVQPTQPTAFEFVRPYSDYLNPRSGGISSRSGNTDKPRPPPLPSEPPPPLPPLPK
Sequence of CDK9/cyclin T1 (P50750 whole entry): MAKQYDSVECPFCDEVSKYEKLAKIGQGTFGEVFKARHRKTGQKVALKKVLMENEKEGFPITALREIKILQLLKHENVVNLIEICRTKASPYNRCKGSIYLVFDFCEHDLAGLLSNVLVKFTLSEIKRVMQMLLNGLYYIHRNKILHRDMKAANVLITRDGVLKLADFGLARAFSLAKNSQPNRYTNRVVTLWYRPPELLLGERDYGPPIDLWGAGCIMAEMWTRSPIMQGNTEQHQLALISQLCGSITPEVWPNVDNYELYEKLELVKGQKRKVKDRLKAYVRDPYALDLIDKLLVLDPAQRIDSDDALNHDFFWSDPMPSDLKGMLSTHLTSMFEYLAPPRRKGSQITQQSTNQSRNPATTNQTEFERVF

[10] = Half-life in mouse at 5 mg/kg measured upto 24 hrs by LC-MS/MS analysis; type: ADME, organism-based; conditions: in vivo
[11] = molecular target: Serine/threonine-protein kinase B-raf (Homo sapiens, UniProt P15056); assay: Inhibition of BRAF (unknown origin)
[12] = Drug distribution in tumor of nude mouse implanted with mouse BaF3 cells harboring EGFR del18/T790M/C797S triple mutant at 15 to 45 mg/kg, po administered as single dose and measured after 4 hrs; type: ADME, organism-based, Neoplasm; conditions: in vivo, dose 15-45 mg/kg
[13] = AUC(0 to infinity) in mouse at 5 mg/kg measured upto 24 hrs by LC-MS/MS analysis; type: ADME, organism-based; set-up: dose 5 mg/kg, time < 24 hrs; conditions: in vivo
[14] = Antitumor activity against patient-derived human […] cells xenografted in mouse assessed as tumor weight at 40 mg/kg, po administered once a day for 28 days relative to control; type: functional, LD1-0025-200717; conditions: time 28 day
[15] = tested on: BaF3; assay: Antitumor activity against mouse BaF3 cells harboring EGFR del18/T790M/C797S triple mutant implanted in Balb/c nude mouse assessed as tumor weight at 15 mg/kg, po administered once a day for 14 days; type: functional; conditions: time 14 day
[16] = tested on: BaF3; assay: Antitumor activity against mouse BaF3 cells harboring EGFR del18/T790M/C797S triple mutant implanted in Balb/c nude mouse assessed as tumor growth inhibition at 40 mg/kg, po administered once a day for 14 days relative to control; type: functional; conditions: BaF3, 336 h, time 14 day, read-out: TGI
[17] = Antitumor activity against patient-derived human […] cells xenografted in mouse assessed as tumor growth inhibition at 20 mg/kg, po administered once a day for 28 days relative to control; type: functional; conditions: LD1-0025-200717, 672 h, time 28 day, read-out: TGI
[18] = Toxicity in Sprague-Dawley rat assessed as effect on body weight at 3 to 7.5 mg/kg, po administered once a day for 4 weeks and measured 4 weeks post recovery period; type: organism-based; conditions: in vivo, 1344 h, dose 3-7.5 mg/kg, time 8 weeks
[19] = AUC(0 to t) in mouse at 5 mg/kg measured upto 24 hrs by LC-MS/MS analysis; type: ADME, organism-based; set-up: time < 24 hrs, dose 5 mg/kg; conditions: in vivo
[20] = Antitumor activity against patient-derived human […] cells xenografted in mouse assessed as tumor growth inhibition at 40 mg/kg, po administered once a day for 28 days relative to control; type: functional; conditions: LD1-0025-200717, 672 h, time 28 day, read-out: TGI
[21] = Toxicity in orally dosed Sprague-Dawley rat assessed as maximum tolerated dose administered once a day for 4 weeks and measured 4 weeks post recovery period; type: organism-based; conditions: in vivo, route po, time 8 weeks
[22] = molecular target: Phosphatidylinositol 4,5-bisphosphate 3-kinase catalytic subunit alpha isoform (Homo sapiens, UniProt P42336); assay: Inhibition of PI3Kalpha (unknown origin)
[23] = tested on: BaF3; assay: Antitumor activity against mouse BaF3 cells harboring EGFR del18/T790M/C797S triple mutant implanted in Balb/c nude mouse assessed as tumor growth inhibition at 15 mg/kg, po administered once a day for 14 days relative to control; type: functional; conditions: BaF3, 336 h, time 14 day, read-out: TGI
[24] = molecular target: Epidermal growth factor receptor (Homo sapiens, UniProt P00533, C797S/L858R/T790M); assay: Inhibition of EGFR L858R/T790M/C797S triple mutant (unknown origin) using TK as substrate incubated for 120 mins in the presence of ATP by HTRF assay
[25] = Antitumor activity against patient-derived human […] cells xenografted in mouse assessed as tumor weight at 20 mg/kg, po administered once a day for 28 days relative to control; type: functional, LD1-0025-200717; conditions: time 28 day
[26] = Drug distribution in tumor of nude mouse implanted with mouse BaF3 cells harboring EGFR del18/T790M/C797S triple mutant at 20 mg/kg, po administered as single dose and measured upto 24 hrs; type: ADME, organism-based, Neoplasm; conditions: in vivo
[27] = MRT in mouse at 5 mg/kg measured upto 24 hrs by LC-MS/MS analysis; type: ADME, organism-based; conditions: in vivo
[28] = Drug distribution in brain of nude mouse implanted with mouse BaF3 cells harboring EGFR del18/T790M/C797S triple mutant at 20 mg/kg, po administered as single dose and measured upto 24 hrs; type: ADME, organism-based; conditions: in vivo
[29] = Cmax in mouse at 5 mg/kg measured upto 24 hrs by LC-MS/MS analysis; type: ADME, organism-based; set-up: time < 24 hrs, dose 5 mg/kg; conditions: in vivo
[30] = molecular target: Mitogen-activated protein kinase 14 (Homo sapiens, UniProt Q16539); assay: Inhibition of P38alpha (unknown origin)
Sequence of Mitogen-activated protein kinase 14 (Q16539 whole entry): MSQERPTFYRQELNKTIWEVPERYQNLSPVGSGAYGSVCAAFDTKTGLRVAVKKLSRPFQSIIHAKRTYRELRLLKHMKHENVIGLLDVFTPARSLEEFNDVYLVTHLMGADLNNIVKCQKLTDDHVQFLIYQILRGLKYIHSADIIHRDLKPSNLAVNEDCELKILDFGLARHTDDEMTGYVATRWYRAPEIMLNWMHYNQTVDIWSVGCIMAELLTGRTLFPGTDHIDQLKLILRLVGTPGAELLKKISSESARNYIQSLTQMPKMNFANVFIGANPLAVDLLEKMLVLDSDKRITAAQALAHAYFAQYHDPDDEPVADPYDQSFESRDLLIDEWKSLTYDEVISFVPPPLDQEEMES

[31] = Toxicity in Sprague-Dawley rat assessed as body weight gain during recovery period at 15 mg/kg, po administered once a day for 4 weeks and measured 4 weeks post recovery period; type: organism-based; conditions: in vivo, 1344 h, time 8 weeks
[32] = Acute toxicity in Sprague-Dawley rat assessed as biological changes in clinical pathology at 15 to 60 mg/kg, IG administered as single dose and measured after 14 days; type: organism-based; conditions: in vivo, po, 336 h, dose 15-60 mg/kg, time 14 day
[33] = molecular target: Epidermal growth factor receptor (Homo sapiens, UniProt P00533, C797S/EX18DEL/T790M); assay: Inhibition of EGFR del18/T790M/C797S triple mutant (unknown origin) using TK as substrate incubated for 120 mins in the presence of ATP by HTRF assay
Sequence of Epidermal growth factor receptor (Homo sapiens, UniProt P00533, C797S/EX18DEL/T790M) (P00533 whole entry, looked up, stated change not applied): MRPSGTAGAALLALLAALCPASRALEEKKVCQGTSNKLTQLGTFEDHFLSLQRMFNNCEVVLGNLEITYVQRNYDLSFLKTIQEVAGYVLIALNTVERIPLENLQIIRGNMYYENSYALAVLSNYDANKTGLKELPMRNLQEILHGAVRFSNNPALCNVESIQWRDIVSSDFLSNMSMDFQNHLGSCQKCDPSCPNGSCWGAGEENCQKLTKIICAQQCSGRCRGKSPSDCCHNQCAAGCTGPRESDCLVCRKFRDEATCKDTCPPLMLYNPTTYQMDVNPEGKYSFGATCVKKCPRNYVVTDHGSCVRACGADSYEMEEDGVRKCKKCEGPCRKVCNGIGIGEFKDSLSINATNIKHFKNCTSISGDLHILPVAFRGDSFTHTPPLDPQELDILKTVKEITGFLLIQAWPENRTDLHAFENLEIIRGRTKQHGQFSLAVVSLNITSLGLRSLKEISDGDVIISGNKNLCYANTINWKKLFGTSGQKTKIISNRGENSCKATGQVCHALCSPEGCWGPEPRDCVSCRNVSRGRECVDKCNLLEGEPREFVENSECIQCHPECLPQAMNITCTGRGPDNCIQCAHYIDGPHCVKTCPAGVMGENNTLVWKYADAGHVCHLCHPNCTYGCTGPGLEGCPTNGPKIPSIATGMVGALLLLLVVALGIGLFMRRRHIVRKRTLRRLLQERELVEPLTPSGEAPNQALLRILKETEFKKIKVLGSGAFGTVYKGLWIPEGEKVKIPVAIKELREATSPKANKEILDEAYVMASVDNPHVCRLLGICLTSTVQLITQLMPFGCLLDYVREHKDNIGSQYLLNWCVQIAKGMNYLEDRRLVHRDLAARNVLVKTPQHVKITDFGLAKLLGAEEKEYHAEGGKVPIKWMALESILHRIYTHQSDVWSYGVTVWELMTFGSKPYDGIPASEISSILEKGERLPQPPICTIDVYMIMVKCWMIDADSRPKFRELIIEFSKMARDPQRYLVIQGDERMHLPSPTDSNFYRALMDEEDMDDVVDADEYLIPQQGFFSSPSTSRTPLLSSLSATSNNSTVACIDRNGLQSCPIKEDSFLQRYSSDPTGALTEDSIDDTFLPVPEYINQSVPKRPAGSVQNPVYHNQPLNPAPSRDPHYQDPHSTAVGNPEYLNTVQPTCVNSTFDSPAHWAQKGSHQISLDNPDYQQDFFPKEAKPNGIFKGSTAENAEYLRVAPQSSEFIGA

[34] = tested on: PC-9; assay: Antitumor activity against human PC-9 cells harboring EGFR del18/T790M/C797S triple mutant xenografted in NOD/SCID mouse assessed as tumor growth inhibition at 15 mg/kg, po administered once a day for 21 days relative to control; type: functional; conditions: PC-9, 504 h, time 21 day, read-out: TGI
[35] = molecular target: RAC-gamma serine/threonine-protein kinase (Homo sapiens, UniProt Q9Y243); assay: Inhibition of AKT3 (unknown origin)
Sequence of RAC-gamma serine/threonine-protein kinase (Q9Y243 whole entry): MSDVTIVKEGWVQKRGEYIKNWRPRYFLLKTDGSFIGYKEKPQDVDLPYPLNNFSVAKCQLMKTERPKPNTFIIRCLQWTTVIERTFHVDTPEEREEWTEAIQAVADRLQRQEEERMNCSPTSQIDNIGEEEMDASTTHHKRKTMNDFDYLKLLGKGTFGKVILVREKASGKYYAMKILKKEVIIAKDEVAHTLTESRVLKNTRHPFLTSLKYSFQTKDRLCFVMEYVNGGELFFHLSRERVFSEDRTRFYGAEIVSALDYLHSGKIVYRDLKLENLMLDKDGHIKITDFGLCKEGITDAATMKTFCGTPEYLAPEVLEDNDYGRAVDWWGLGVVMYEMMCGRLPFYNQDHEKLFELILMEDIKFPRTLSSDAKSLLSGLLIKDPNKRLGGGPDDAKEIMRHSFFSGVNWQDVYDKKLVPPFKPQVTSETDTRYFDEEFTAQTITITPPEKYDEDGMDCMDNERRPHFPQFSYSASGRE

[36] = tested on: PC-9; assay: Antitumor activity against human PC-9 cells harboring EGFR del18/T790M/C797S triple mutant xenografted in NOD/SCID mouse assessed as tumor growth inhibition at 30 mg/kg, po administered once a day for 21 days relative to control; type: functional; conditions: PC-9, 504 h, time 21 day, read-out: TGI
[37] = molecular target: Epidermal growth factor receptor (Homo sapiens, UniProt P00533); assay: In vivo inhibition of EGFR phosphorylation in nude mouse implanted with mouse BaF3 cells harboring EGFR del18/T790M/C797S triple mutant at 20 mg/kg, po administered as single dose and measured upto 24 hrs by Western blot analysis
Sequence of Epidermal growth factor receptor (Homo sapiens, UniProt P00533) (P00533 whole entry, looked up): as the sequence (P00533 whole entry, looked up, stated change not applied) above

[38] = tested on: BaF3; assay: Antitumor activity against mouse BaF3 cells harboring EGFR del18/T790M/C797S triple mutant implanted in Balb/c nude mouse assessed as tumor weight at 40 mg/kg, po administered once a day for 14 days; type: functional; conditions: time 14 day
[39] = Inhibition of ABL (unknown origin); set-up: species or system Homo sapiens
[40] = tested on: BaF3; assay: In vivo inhibition of ERK phosphorylation in nude mouse implanted with mouse BaF3 cells harboring EGFR del18/T790M/C797S triple mutant at 20 mg/kg, po administered as single dose and measured upto 24 hrs by Western blot analysis; type: organism-based
[41] = molecular target: CDK6/cyclin D3 (Homo sapiens, UniProt Q00534); assay: Inhibition of CDK6/cyclin-D3 (unknown origin); type: protein-complex assay
Sequence of CDK6/cyclin D3 (P30281 whole entry): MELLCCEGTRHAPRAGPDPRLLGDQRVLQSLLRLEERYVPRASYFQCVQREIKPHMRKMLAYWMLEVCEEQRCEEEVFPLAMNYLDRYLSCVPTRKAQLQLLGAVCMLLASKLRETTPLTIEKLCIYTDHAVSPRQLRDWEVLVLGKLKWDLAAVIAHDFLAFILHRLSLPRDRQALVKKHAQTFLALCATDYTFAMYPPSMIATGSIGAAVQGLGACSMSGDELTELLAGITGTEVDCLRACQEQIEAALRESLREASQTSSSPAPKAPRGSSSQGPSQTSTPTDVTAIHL
Sequence of CDK6/cyclin D3 (Q00534 whole entry): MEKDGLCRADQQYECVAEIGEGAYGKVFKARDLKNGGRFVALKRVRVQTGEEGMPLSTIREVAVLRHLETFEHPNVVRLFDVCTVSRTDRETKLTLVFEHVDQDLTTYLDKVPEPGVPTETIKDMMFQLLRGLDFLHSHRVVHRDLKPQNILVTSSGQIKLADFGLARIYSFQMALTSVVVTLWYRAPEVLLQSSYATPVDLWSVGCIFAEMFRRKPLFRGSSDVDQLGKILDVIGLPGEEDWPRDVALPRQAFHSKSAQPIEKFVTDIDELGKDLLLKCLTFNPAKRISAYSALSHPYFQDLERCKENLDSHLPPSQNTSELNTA

COc1cc(N2CCC(N3CCN(C)CC3)CC2)ccc1Nc1ncc(Cl)c(Nc2ccccc2P(C)(C)=O)n1 [BRIGATINIB] gave an IC50 [1] of less than 100 nM, an IC50 [2] of 433 nM and an IC50 [3] of 709 nM.
With COCC1CN(C2CCN(c3cc(OC)c(Nc4ncc(Br)c(Nc5ccc6c(c5P(C)(C)=O)OCCO6)n4)cc3C)CC2)C1 the inhibition in vivo at 30 mg/kg [4] was 82.6%, the inhibition in vivo at 40 mg/kg [5] was 68.8% and the Drug uptake [6] was “Active”. The Activity [7] was 0.319 g, the Activity [8] was “Non-Toxic” and the IC50 [9] was 4080 nM. The half-life [10] was 2.9 h, the IC50 [11] was greater than 10000 nM and the Drug uptake [12] was “Active”. For the same compound, the AUC(0-inf) [13] was 11600 ng·h/mL, the Activity [14] was 0.38 g and the Activity [15] was 0.653 g. For the same compound, the inhibition in vivo at 40 mg/kg [16] was 90.3%, the inhibition in vivo at 20 mg/kg [17] was 58.4% and the Activity [18] was “Non-Toxic”. It also gave an AUC(0-t) at 24 h [19] of 11600 ng·h/mL, an inhibition in vivo at 40 mg/kg [20] of 67.4% and an MTD at 1344 h [21] of 15 mg/kg. The IC50 [22] was greater than 10000 nM, the inhibition in vivo at 15 mg/kg [23] was 48.4% and the IC50 [24] was 0.09 nM. For the same compound, the Activity [25] was 0.475 g, the Drug uptake [26] was “Active” and the MRT [27] was 4.7 h. The Drug uptake [28] was “Active”, the Cmax [29] was 1990 ng/mL and the IC50 [30] was greater than 10000 nM. The Activity [31] was “Toxic”, the Activity [32] was “Non-Toxic” and the IC50 [2] was 14 nM. The IC50 [33] was 0.31 nM, the inhibition in vivo at 15 mg/kg [34] was 22% and the IC50 [35] was greater than 10000 nM. The inhibition in vivo at 30 mg/kg [36] was 47.2%, the inhibition [37] was “Active” and the Activity [38] was 0.161 g. The IC50 [39] was 86 nM, the inhibition [40] was “Active” and the IC50 [41] was greater than 10000 nM.
